We go through 31 compounds from patent US7196110B2, “N-substituted tricyclic 3-aminopyrazoles as inhibitors for the treatment of cell proliferative disorders” (Janssen Phamaceutica N.V., priority 2002, dated 2007).

Read-outs that look alike come from different tables or passages of the source.

The term inhibition denotes the drop in the measured response relative to a control, in per cent. In general, IC50 refers to the point on the concentration scale where inhibition reaches its midpoint.

The experiment has as its target T1, PDGF-receptor beta enzyme comprising the tyrosine kinase domain (Homo sapiens, UniProt P09619).
T1 construct: from amino acid 545 to 1106 of GenBank Access NO: AAA36427
The experiment can be described thus: Inhibition of PDGF-receptor kinase activity (cell-free, PLC1 peptide, 33P Flashplate). It is filed as biochemical. Conditions: for inhibition at 10 µM: read-out: Percent Inhibition @ 10 uM. Put shortly:
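The IC50 is the inhibitor level halving kinase activity relative to inhibitor-free wells, measured as 33P captured on a streptavidin-bound biotin-PLC1 peptide. The reaction ran 60 min at 30 °C in pH 8 Tris buffer with 1 mM DTT, 5 μM ATP and the 545–1106 kinase-domain enzyme.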

The mark [1] stands for this setting: PDGF-R kinase activity, compound at 10 uM.
Setting [2] is: PDGF-R kinase activity, read-out: IC50.
Setting [3] is: read-out: IC50 (μM) on PDGF-R kinase activity.

T1 sequence (P09619 545-1106): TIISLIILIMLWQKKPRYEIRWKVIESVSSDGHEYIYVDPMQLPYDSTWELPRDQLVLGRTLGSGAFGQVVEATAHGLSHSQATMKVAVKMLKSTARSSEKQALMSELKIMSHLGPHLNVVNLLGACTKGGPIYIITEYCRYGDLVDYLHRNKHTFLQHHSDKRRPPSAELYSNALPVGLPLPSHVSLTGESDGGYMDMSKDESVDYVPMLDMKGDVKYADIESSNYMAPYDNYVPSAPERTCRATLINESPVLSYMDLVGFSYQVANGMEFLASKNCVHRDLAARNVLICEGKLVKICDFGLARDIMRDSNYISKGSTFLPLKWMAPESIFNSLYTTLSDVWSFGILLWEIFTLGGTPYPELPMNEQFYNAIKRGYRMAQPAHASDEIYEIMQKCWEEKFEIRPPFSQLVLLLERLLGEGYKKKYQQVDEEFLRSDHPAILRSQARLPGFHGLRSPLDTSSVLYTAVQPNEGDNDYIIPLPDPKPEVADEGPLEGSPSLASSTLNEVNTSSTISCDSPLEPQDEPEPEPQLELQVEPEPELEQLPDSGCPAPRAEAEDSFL

Take `COc1cc2c(cc1OC)[C@@H](C)c1c-2n[nH]c1Nc1cccc(Br)c1` [Compound 553, (4R)-N-(3-bromo-phenyl)-(6,7-dimethoxy-4-methyl-2,4-dihydro-indeno[1,2-c]pyrazol-3-yl)-amine]: the inhibition at 10 µM under setting [1] was 99.5%. Moreover, the IC50 under setting [2] came out at 0.0065 µM.

With `COc1cc2c(cc1OC)-c1c(c(Nc3cccc(F)c3)nn1CC(N)=O)C2` [Compound 534, 2-[3-(3-Fluoro-phenylamino)-6,7-dimethoxy-4H-indeno[1,2-c]pyrazol-1-yl]-acetamide], the inhibition at 10 µM under setting [1] came to 94%. The IC50 under setting [2] worked out at 0.933 µM.

Consider `COc1cc2c(cc1OC)-c1n[nH]c(NCc3cc(F)ccc3F)c1C2` [Compound 323, (2,5-Difluoro-benzyl)-(6,7-dimethoxy-2,4-dihydro-indeno[1,2-c]pyrazol-3-yl)-amine], for which the inhibition at 10 µM under setting [1] was determined as 60.5%. The concentration for half-maximal inhibition (IC50) under setting [2] came to 8.71 µM.

Turning to `COc1cc2c(cc1OC)-c1c(c(Nc3cccc(F)c3)nn1C(=O)OCCOCc1ccccc1)C2` [Compound 470, 3-(3-Fluoro-phenylamino)-6,7-dimethoxy-4H-indeno[1,2-c]pyrazole-1-carboxylic acid 2-benzyloxy-ethyl ester], the inhibition at 10 µM under setting [1] was 96%. Further, the IC50 under setting [2] is 0.197 µM.

On to `COc1cc2c(cc1OC)-c1n[nH]c(Nc3ccccc3Br)c1C2` [Compound 43, (2-Bromo-phenyl)-(6,7-dimethoxy-2,4-dihydro-indeno[1,2-c]pyrazol-3-yl)-amine], for which the inhibition at 10 µM under setting [1] is 60%. Further, the IC50 under setting [2] came to 0.195 µM.

In the case of `COC(=O)C(NC(=O)n1nc2c(c1Nc1cccc(F)c1)Cc1cc(OC)c(OC)cc1-2)C(C)C` (centres unmarked) [Compound 413, 2-{[3-(3-Fluoro-phenylamino)-6,7-dimethoxy-4H-indeno[1,2-c]pyrazole-2-carbonyl]-amino}-3-methyl-butyric acid methyl ester], the inhibition at 10 µM under setting [1] turned out to be 71%. Further, the IC50 under setting [2] amounted to 1.14 µM.

For `OCCCOc1cccc2c1Cc1c-2n[nH]c1Nc1cccc(Cl)c1` [Compound 440, 3-[3-(3-Chloro-phenylamino)-2,4-dihydro-indeno[1,2-c]pyrazol-5-yloxy]-propan-1-ol], the inhibition at 10 µM under setting [1] came out at 89.5%. Further, the IC50 under setting [2] was 0.0457 µM.

On to `CC(C)Oc1cc2c(cc1OC(C)C)C(C)c1c-2n[nH]c1Nc1cccnc1` (centres unmarked) [Compound 352, (6,7-Diisopropoxy-4-methyl-2,4-dihydro-indeno[1,2-c]pyrazol-3-yl)-pyridin-3-yl-amine], for which, under setting [1], the inhibition at 10 µM was 86.5%. Under setting [2], the IC50 was 0.755 µM.

As for `COc1ccc2c(c1)Cc1c-2n[nH]c1Nc1cccnc1` [Compound 84, (6-Methoxy-2,4-dihydro-indeno[1,2-c]pyrazol-3-yl)-pyridin-3-yl-amine], the inhibition at 10 µM under setting [1] came out at 86%. Further, the IC50 under setting [2] came out at 0.71 µM.

Take `Fc1cccc(Nc2[nH]nc3c2Cc2cc4c(cc2-3)OCO4)c1` [Compound 96, (2,9-Dihydro-5,7-dioxa-2,3-diaza-cyclopenta[a]-s-indacen-1-yl)-(3-fluoro-phenyl)-amine]: the inhibition at 10 µM under setting [1] came to 93%. Further, under setting [2], the IC50 amounted to 0.076 µM.

As for `COc1ccc(Cl)cc1Nc1[nH]nc2c1Cc1ccccc1-2` [Compound 342, (5-Chloro-2-methoxy-phenyl)-(2,4-dihydro-indeno[1,2-c]pyrazol-3-yl)-amine], under setting [1], the inhibition at 10 µM is 56.5%. Under setting [2], the IC50 is 0.0267 µM.

With `COc1cc2c(cc1OC)C(C)(C)c1c-2n[nH]c1Nc1cccc(Cl)c1` [Compound 486, (3-Chloro-phenyl)-(6,7-dimethoxy-4,4-dimethyl-2,4-dihydro-indeno[1,2-c]pyrazol-3-yl)-amine], under setting [1], the inhibition at 10 µM turned out to be 34.5%. Besides, the IC50 under setting [2] came to 15.8 µM.

As to `CN1CCN(c2ccc3c(c2)Cc2c-3n[nH]c2Nc2ccccc2)CC1` [Compound 64, [6-(4-Methyl-piperazin-1-yl)-2,4-dihydro-indeno[1,2-c]pyrazol-3-yl]-phenyl-amine], the inhibition at 10 µM under setting [1] is 118%. The IC50 under setting [2] stood at 0.449 µM.

As for `CN(C)c1ccc2c(c1)Cc1c-2n[nH]c1Nc1ccccc1` [Compound 92, N6,N6-Dimethyl-N3-phenyl-2,4-dihydro-indeno[1,2-c]pyrazole-3,6-diamine], under setting [1], the inhibition at 10 µM amounted to 75%. The IC50 under setting [2] turned out to be 0.383 µM.

As to `COc1cc2c(cc1OC)-c1n[nH]c(NCCN3CCCCC3)c1C2` [Compound 81, (6,7-Dimethoxy-2,4-dihydro-indeno[1,2-c]pyrazol-3-yl)-(2-piperidin-1-yl-ethyl)-amine], the inhibition at 10 µM under setting [1] came out at 29%. Under setting [2], the IC50 was determined as 85.9 µM.

Turning to `COc1cc2c(c3nc(C)oc13)Cc1c(NCc3ccccc3F)n[nH]c1-2` [Compound 574, (2-Fluoro-benzyl)-(4-methoxy-2-methyl-6,9-dihydro-3-oxa-1,6,7-triaza-cyclopenta[b]-as-indacen-8-yl)-amine], the inhibition at 10 µM under setting [1] stood at 99%. Also, under setting [3], the IC50 was found to be 0.163 µM.

As to `CCCC(=O)OCn1nc2c(c1Nc1cccc(F)c1)Cc1cc(OC)c(OC)cc1-2` [Compound 491, Butyric acid 3-(3-fluoro-phenylamino)-6,7-dimethoxy-4H-indeno[1,2-c]pyrazol-2-ylmethyl ester], under setting [1], the inhibition at 10 µM amounted to 92%. Besides, the IC50 under setting [2] is 0.314 µM.

As to `COc1cc2c(cc1OC)-c1n[nH]c(Nc3ccc4c(c3)CCC4)c1C2` [Compound 79, (6,7-Dimethoxy-2,4-dihydro-indeno[1,2-c]pyrazol-3-yl)-indan-5-yl-amine], the inhibition at 10 µM under setting [1] is 56%. In addition, under setting [2], the IC50 came to 3.71 µM.

On to `Fc1ccc2c(c1)Cc1c-2n[nH]c1Nc1cc(C(F)(F)F)cc(C(F)(F)F)c1` [Compound 239, (3,5-Bis-trifluoromethyl-phenyl)-(6-fluoro-2,4-dihydro-indeno[1,2-c]pyrazol-3-yl)-amine], for which the inhibition at 10 µM under setting [1] was determined as 91%. The IC50 under setting [2] turned out to be 0.138 µM.

For the compound `Fc1ccc2c(c1)Cc1c-2n[nH]c1NCc1ccc(F)c(F)c1` [Compound 308, (3,4-Difluoro-benzyl)-(6-fluoro-2,4-dihydro-indeno[1,2-c]pyrazol-3-yl)-amine], the inhibition at 10 µM under setting [1] is 14%. Also, the IC50 under setting [2] was determined as 0.511 µM.

With `COc1cc2c(cc1OC)-c1nn(C(=O)NCCOCCOCCO)c(Nc3cccc(F)c3)c1C2` [Compound 604, 3-(3-Fluoro-phenylamino)-6,7-dimethoxy-4H-indeno[1,2-c]pyrazole-2-carboxylic acid {2-[2-(2-hydroxy-ethoxy)-ethoxy]-ethyl}-amide], under setting [1], the inhibition at 10 µM came to 79.5%. Also, the IC50 under setting [3] came to 2.13 µM.

Regarding `COc1cc2c(cc1OCC(O)CO)Cc1c-2n[nH]c1NCc1ccccc1Cl` (centres unmarked) [Compound 451, 3-[3-(2-Chloro-benzylamino)-7-methoxy-2,4-dihydro-indeno[1,2-c]pyrazol-6-yloxy]-propane-1,2-diol], under setting [1], the inhibition at 10 µM was determined as 99.5%. Besides, the IC50 under setting [2] stood at 0.002 µM.

As for `COC(=O)c1cccc(Nc2[nH]nc3c2Cc2c(OCCCN(C)C)cccc2-3)c1` [Compound 77, 3-[5-(3-Dimethylamino-propoxy)-2,4-dihydro-indeno[1,2-c]pyrazol-3-ylamino]-benzoic acid methyl ester], the inhibition at 10 µM under setting [1] came to 108%. The IC50 under setting [2] turned out to be 0.217 µM.

As to `CCOc1cccc(Nc2[nH]nc3c2C(C)c2cc(OC)c(OC)cc2-3)c1` (single isomer, unassigned) [Compound 554, (6,7-Dimethoxy-4-methyl-2,4-dihydro-indeno[1,2-c]pyrazol-3-yl)-(3-ethoxy-phenyl)-amine], under “PDGF-R kinase activity, compound at 10 uM, 10 µM”, the “Percent Inhibition @ 10 uM” value is reported as 102%. Also, under setting [2], the IC50 was 0.0208 µM.

For the compound `Cc1ccc(Nc2[nH]nc3c2Cc2cc(Cl)ccc2-3)cc1` [Compound 198, (6-Chloro-2,4-dihydro-indeno[1,2-c]pyrazol-3-yl)-p-tolyl-amine], under setting [1], the inhibition at 10 µM amounted to 72%. Further, under setting [2], the IC50 came out at 0.138 µM.

In the case of `COc1cc2c(cc1OC)-c1n[nH]c(Nc3cccnc3Cl)c1C2` [Compound 377, (2-Chloro-pyrid-3-yl)-(6,7-dimethoxy-2,4-dihydro-indeno[1,2-c]pyrazol-3-yl)-amine], the inhibition at 10 µM under setting [1] came out at 99%. Also, the IC50 under setting [2] amounted to 0.00857 µM.

Consider `CCOC(=O)CCC(=O)n1nc(Nc2cccc(F)c2)c2c1-c1cc(OC)c(OC)cc1C2` [Compound 429, 4-[3-(3-Fluoro-phenylamino)-6,7-dimethoxy-4H-indeno[1,2-c]pyrazol-1-yl]-4-oxo-butyric acid ethyl ester], for which the inhibition at 10 µM under setting [1] was 72%. Besides, the IC50 under setting [2] turned out to be 0.671 µM.

Consider `COc1cc2c(cc1OCCCN1CCN(C)CC1)Cc1c-2n[nH]c1Nc1cccc(Cl)c1` [Compound 213, (3-Chloro-phenyl)-{7-methoxy-6-[3-(4-methyl-piperazin-1-yl)-propoxy]-2,4-dihydro-indeno[1,2-c]pyrazol-3-yl}-amine], for which the inhibition at 10 µM under setting [1] was 82%. Besides, under setting [2], the IC50 worked out at 0.0027 µM.

With `Fc1ccc(Nc2[nH]nc3c2Cc2sccc2-3)cc1Cl` [Compound 404, (3-Chloro-4-fluoro-phenyl)-(5,7-dihydro-1-thia-4,5-diaza-cyclopenta[a]pentalen-6-yl)-amine], the inhibition at 10 µM under setting [1] is 74.5%. The half-maximal inhibitory concentration (IC50) under setting [2] amounted to 1.11 µM.

On to `COc1cc2c(cc1OC)-c1c(c(Nc3cccc(F)c3)nn1C(=O)CCC(N)=O)C2` [Compound 531, 4-[3-(3-Fluoro-phenylamino)-6,7-dimethoxy-4H-indeno[1,2-c]pyrazol-1-yl]-4-oxo-butyramide], for which the inhibition at 10 µM under setting [1] was determined as 90%. Moreover, the IC50 under setting [2] was 0.024 µM.

As for `COc1cc2c(cc1OC)C(C)c1c-2n[nH]c1Nc1cccc(SC)c1` (centres unmarked) [Compound 255, (6,7-Dimethoxy-4-methyl-2,4-dihydro-indeno[1,2-c]pyrazol-3-yl)-(3-methylsulfanyl-phenyl)-amine], under setting [1], the inhibition at 10 µM is 90%. In addition, the IC50 under setting [2] stood at 0.162 µM.
